The results in this text go back to patent US20260285847A1, “SYMMETRIC AMINOINDOLE-LINKED TRIAZINE FOR A DUAL EFFECT ON ALPHA-SYNUCLEIN AND TAU ISOFORM 2N4R FIBRILLIZATION” (Purdue Research Foundation, priority 2023, published 2026).

SMILES strings stand for the structures. “Also recorded” adds a separate entry of the source.

The target in one experiment is T1, α-syn (Homo sapiens, UniProt P37840).
T1 construct: purchased rPeptide
Nature of the experiment: PICUP cross-linking assay of α-syn oligomer formation. It is filed as biochemical. As for the experimental part:
PICUP is a technique in which oligomer formation is induced by cross-linking. To induce oligomerization by cross-linking, α-syn (from Rpeptide, LLC) and tau isoform 2N4R were diluted in 10 mM phosphate buffer (pH 7.4) to reach a final concentration of 10 μM. Different compounds were added to the protein solution at a final concentration of 50 μM, resulting in a molar ratio of 1:5. To confirm the gradual effect of compounds on the inhibition of α-syn oligomerization, compounds were tested at final concentration of 3.125, 6.25, 12.5, 25, and 50 μM. The controls consisted of samples without light exposition, without Ru(bpy) or ammonium persulfate, and without compound (i.e., 0.125% DMSO). The cross-linking reaction was initiated by the addition of 2 μL of Ru(bpy) (300 μM final concentration) and 2 μL ammonium persulfate (6 mM final concentration).^32 Samples were irradiated immediately. Light exposure was of a 1 second duration for α-syn and a 3 second duration for tau isoform 2N4R, with a 53 W (120 V) incandescent lamp installed in a homemade dark-box. Each tube contained a final volume of 20 μL. After irradiation, 8.3 μL of Laemmli loading buffer containing 15% 0-mercaptoethanol was immediately added to the solution, followed by incubation at 95° C. for 10 min. The cross-linked samples were separated on a 16% SDS-PAGE gel and visualized by Coomassie blue staining.

Another experiment concerns the target T2, alpha-synuclein (α-syn) (Homo sapiens, UniProt P37840).
T2 construct: purchased rPeptide
Nature of the experiment: Thioflavin T (ThT) fluorescence assay of α-syn fibril formation. The class given is biochemical. To be noted: compound 100 μM. As for the experimental part:
Thioflavin fluorescence assays. Thioflavin fluorescence assays were used to monitor fibril formation of recombinant α-syn, tau isoform 2N4R, treated with control DMSO and different compounds. Kinetics of α-syn fibrillization were performed using thioflavin T (ThT) as published previously.^32′ ^37 The fluorescence emission experiments were performed with the excitation and emission wavelengths set at 440 and 485 nm, respectively, with a Synergy HT multi-mode microplate reader (BioTek, Winooski, VT). Samples were measured in three replicates and the experiments were repeated three times using at least two different stock solutions. For each time point, arbitrary units of fluorescence were calculated from the mean values normalized against the maximum value in each completed assay. All results contained in FIG. 1 were presented as mean±SEM.
FIG. 1. Chemical structure, physicochemical descriptors, and the effect of compounds on alpha-synuclein (α-syn) aggregation measured as fluorescence intensity using ThT assay. TPSA, Log P, and Log D were obtained with SwissADME. BBB and pKa were obtained from the Blood-Brain Barrier Prediction Server (https://www.cbligand.org/BBB/) and Chemaxon, respectively. CNS MPO scores were assessed as published previously, The ThT (%) represent the maximum fluorescence intensity obtained at the plateau phase of the kinetics of fibrillization using 6.25 μM of α-syn. Compounds were tested at 100 μM (molar ratio 1:16). BBB, blood-brain barrier; C log D, calculated distribution coefficient at 7.4; C log P, calculated partition coefficient; CNS MPO, Central Nervous System Multi Parameter Optimization; HBA, Hydrogen Bond Acceptor; HBD, Hydrogen Bond Donor; LR5, Lipinski's rule of five; pKa, negative log of acid dissociation constant; ThT, Thioflavin T; TPSA, Topological polar surface area.

Experiment [1] concerns paired helical filaments isolated from AD brains. Nature of the experiment: Ex vivo disaggregation of paired helical filaments (TEM). Details: species or system human. Conditions: compound 50 μM, 120 hours at 37° C., vs 1.5% DMSO. From the text:
(§1) Amyloid-β plaques were purified from postmortem human AD brains obtained from patients diagnosed with advanced Alzheimer's (Braak stage V or VI) (Tissue Biobank at Case Western Reserve University-Cleveland Clinic) using ultracentrifugation with a sucrose gradient and cell sorting, as previously published.^38-39 Purified amyloid-β plaques were examined with polarized and fluorescence microscopy (Congo Red and Thioflavin-S staining) and scanning electron microscopy. Each aliquot of amyloid-β plaques was solubilized with 60 μL of 10 mM PBS buffer (pH 7.4). One extraction consisted of 0.28 mg/ml of protein, as measured with nanodrop (A260/280 nm). A volume of 20 μL of extraction was incubated with 1.5% DMSO (control) or compound 10 (50 μM) for 120 hours at 37° C. prior to visualization by transmission electron microscopy.
(§2) The protein quantification of the plaques isolated from AD brains were measured with nanodrop. […] Compound 10 was tested at 50 μM based on the protein levels and results obtained with PICUP experiments (FIG. 7). AP-plaque samples were incubated with 1.5% DMSO (control) or compound 10 (50 μM) in 10 mM PBS buffer (pH 7.4) for 120 hours at 37° C. prior to visualization by transmission electron microscopy. During the visualization of the grids, several paired helical filaments were observed.

Experiment [2] relates to Aβ-plaques isolated from AD brains. Nature of the experiment: Ex vivo disaggregation of Aβ-plaques (TEM). To be noted: compound 50 μM, 120 hours at 37° C., vs 1.5% DMSO. Also on record: species or system human.
Excerpt: as §1, §2

In a further experiment the target is T3, tau isoform 2N4R (Homo sapiens, UniProt P10636).
T3 construct: made in house; host or cells: E. coli BL21(DE3)
T3 sequence (P10636 1-441 isoform P10636-8): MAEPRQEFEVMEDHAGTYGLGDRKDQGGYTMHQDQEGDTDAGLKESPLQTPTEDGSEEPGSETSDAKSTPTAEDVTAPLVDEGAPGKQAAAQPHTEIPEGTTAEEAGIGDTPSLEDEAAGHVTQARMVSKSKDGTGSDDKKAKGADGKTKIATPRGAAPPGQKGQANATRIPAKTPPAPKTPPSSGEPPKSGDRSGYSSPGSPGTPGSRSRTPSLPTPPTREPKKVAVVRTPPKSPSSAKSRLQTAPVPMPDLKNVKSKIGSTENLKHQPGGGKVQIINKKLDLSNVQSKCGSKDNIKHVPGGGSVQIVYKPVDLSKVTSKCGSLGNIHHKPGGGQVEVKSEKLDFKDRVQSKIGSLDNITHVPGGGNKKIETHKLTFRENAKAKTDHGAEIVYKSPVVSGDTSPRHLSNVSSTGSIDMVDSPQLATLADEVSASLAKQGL
Nature of the experiment: PICUP cross-linking assay of tau oligomer formation. The class given is biochemical. Here is the method: Chemical and peptide source. DMSO and thioflavin-T (ThT) were purchased from Alfa Aesar (Ward Hill, MA). Procuration of recombinant α-syn was from rPeptide (WatKinsville, GA). The recombinant p-tau isoform 1N4R was prepared as published previously.^31, 36 Concerning the preparation of tau 2N4R, bacterial expression plasmid consisting of the vector pRK172 carrying a cDNA encoding the human Tau 2N4R isoform was a kind gift of Dr. David Eliezer (Weill Cornell Medicine). For protein expression, E. coli BL21(DE3) cells were transformed with the plasmid and grown in LB media supplemented with ampicillin (100 μg/mL). Protein over-expression was induced by the addition of 1 mM IPTG for 4 h at 37° C., and cells were pelleted by centrifugation at 6,000 g for 15 min at 4° C. The cells were resuspended in lysis buffer (20 mM MES, 400 mM NaCl, 0.2 mM MgCl2, 1 mM EGTA, protease inhibitor cocktail (P8340, Sigma Aldrich), 0.25 mg/mL lysozyme, and 1 μg/mL DNase I, pH 6.8) and lysed by a French press cell disruptor at 4° C., and the lysate was boiled for 20 min. Denatured proteins were pelleted by centrifugation at 30,000 g for 30 min at 4° C., and the supernatant was dialyzed overnight against cation exchange buffer (20 mM MES, 50 mM NaCl, 1 mM MgCl2, 1 mM EGTA, 2 mM DTT, 0.1 mM PMSF, pH 6.8). The dialysate was loaded onto a HiPrep SP HP column, and proteins were eluted with a linear gradient ranging from 50 mM to 1 M NaCl. Fractions containing tau isoform 2N4R were pooled, and the resulting protein solution was dialyzed against PBS (pH 7.4) and stored at −80° C.
PICUP is a technique in which oligomer formation is induced by cross-linking. To induce oligomerization by cross-linking, α-syn (from Rpeptide, LLC) and tau isoform 2N4R were diluted in 10 mM phosphate buffer (pH 7.4) to reach a final concentration of 10 μM. Different compounds were added to the protein solution at a final concentration of 50 μM, resulting in a molar ratio of 1:5. […]

As to `c1cc(Nc2ncnc(Nc3cccc4[nH]ccc34)n2)c2cc[nH]c2c1` [Compound 10, N2,N4-bis(1H-indol-4-yl)-1,3,5-triazine-2,4-diamine], the “α-syn oligomer formation (PICUP, in words)” value on α-syn (compound 50 μM, high molecular weight oligomers around 50 kDa) was “inhibited both α-syn and tau oligomer formation”. For the same molecule, the “α-syn oligomerization at different concentrations (PICUP)” value on α-syn (compound 3.125 to 50 μM) was “effective in reducing oligomerization of α-syn and tau isoform 2N4R in a dose-dependent manner”. On alpha-synuclein (α-syn) (α-syn 6 μM), the “lag time of α-syn fibril elongation” value was “delayed slightly the lag time”. Moreover, on alpha-synuclein (α-syn) (α-syn 6.25 μM (molar ratio 1:16), compared with DMSO control, mean±SEM, read-out: ThT fluorescence intensity (FI), maximum at the plateau phase of α-syn fibrillization), the activity at 100 µM stood at 13.5 ± 1.7%. The “disaggregation of paired helical filaments (TEM, in words)” value in experiment [1] was “shorter paired helical filaments; also recorded: disaggregated human Aβ plaques and NFTs”. In addition, the “disaggregation of Aβ-plaques (TEM, in words)” value in experiment [2] was “smaller AP-plaques; also recorded: disaggregated human Aβ plaques and NFTs”. For the same molecule, at tau isoform 2N4R (compound 50 μM, high molecular weight oligomers around 190 kDa), the “tau oligomer formation (PICUP, in words)” value is “inhibited both α-syn and tau oligomer formation”. In addition, the “tau isoform 2N4R oligomerization at different concentrations (PICUP)” value on tau isoform 2N4R (compound 3.125 to 50 μM) is “effective in reducing oligomerization of α-syn and tau isoform 2N4R in a dose-dependent manner”.
